This note sets out measurements from PubChem BioAssay (NCI).

Some test systems named below: A549 NSCLC; EKVX NSCLC; HL-60(TB) leukemia; MCF7 breast; MDA-N; PC-3 prostate; SNB-19 CNS; SNB-75 CNS; SR leukemia; HOP-92 NSCLC.
Holding throughout (test): NCI tumour cell line growth inhibition, 48 h

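Method: 48-hour compound exposure of cells in 96-well plates, five concentrations, linear interpolation of endpoints. TGI marks complete inhibition of growth.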 Some results are limits rather than exact numbers.

Consider `CC1CC(C#N)=C2NCCN2C1=O` (stereo not drawn), for which the TGI in the assay with A549 NSCLC was > 100 µM; in the assay on EKVX NSCLC, > 100 µM; with HL-60(TB) leukemia it was > 100 µM; in the assay with MCF7 breast, 50.7 µM; in the assay on MDA-N, 31.8 µM; with PC-3 prostate, > 100 µM. For the same compound, the TGI in the assay on SNB-19 CNS, with SNB-75 CNS and with SR leukemia was > 100 µM throughout.

Regarding `CCN(CC)C1Oc2cc3c(cc2C(c2cccc(OC)c2OC)C1C)OCO3` (stereo not drawn), the TGI with A549 NSCLC came to 25.8 µM; in the assay with EKVX NSCLC it was 52.3 µM; with HL-60(TB) leukemia, 4.63 µM; in the assay with MCF7 breast, 60.8 µM; with MDA-N it was 50.5 µM; with PC-3 prostate, 24.4 µM. Moreover, the TGI was 71.4 µM with SNB-19 CNS, 44.7 µM in the assay with SNB-75 CNS and 3.3 µM in the assay with SR leukemia.

Take `Cc1cc2c(cc1C)[n+](=O)c(C(=O)c1ccccc1)c(C(F)(F)F)n2[O-]`: the TGI in the assay with A549 NSCLC came to 3.88 µM; in the assay with EKVX NSCLC, 2.97 µM; in the assay on HL-60(TB) leukemia, 5.73 µM; with HOP-92 NSCLC it was 1.46 µM; in the assay on MCF7 breast it was 14.1 µM; in the assay on MDA-N it was 14.2 µM. The TGI in the assay with PC-3 prostate was determined as 9.19 µM; in the assay on SNB-19 CNS, 15.5 µM; in the assay with SNB-75 CNS, 10.7 µM; in the assay on SR leukemia it was 2.9 µM.

`O=C1Cc2c([nH]c3ccc(C(=O)O)cc23)-c2ccccc2N1`: the TGI in the assay with A549 NSCLC, in the assay on HL-60(TB) leukemia, in the assay with HOP-92 NSCLC, in the assay with MCF7 breast, with MDA-N and with PC-3 prostate was > 100 µM throughout. The TGI with SNB-19 CNS and in the assay with SR leukemia was > 100 µM each time.

As for `CN(C)CCc1c2c(nc3ccccc13)C(=O)c1cccnc1C2=O`, the TGI in the assay on A549 NSCLC turned out to be 3.2 µM; with EKVX NSCLC, 5.73 µM; in the assay on HL-60(TB) leukemia it was 0.365 µM; in the assay on HOP-92 NSCLC, 8.76 µM; in the assay on MCF7 breast, 1.59 µM; with MDA-N, 1.38 µM. Moreover, the TGI with PC-3 prostate worked out at 3.02 µM; in the assay with SNB-19 CNS, 3.88 µM; with SNB-75 CNS it was 2.29 µM; in the assay with SR leukemia, 0.144 µM.

With `O=[N+]([O-])c1ccc(C(O)(C#CCN2CCCC2)c2ccccc2)cc1` (stereo not drawn), the TGI in the assay on A549 NSCLC is > 100 µM; with EKVX NSCLC it was > 100 µM; with HL-60(TB) leukemia, 36.5 µM; in the assay on HOP-92 NSCLC, 51.7 µM; with MCF7 breast, > 100 µM; with MDA-N, > 100 µM. For the same compound, the TGI in the assay with PC-3 prostate is > 100 µM; with SNB-19 CNS it was > 100 µM; in the assay with SNB-75 CNS, > 100 µM; in the assay with SR leukemia, 44.2 µM.

Take `COC(=O)C(Cc1c[nH]c2ccccc12)N=C1Nc2ccncc2S(=O)(=O)N1c1cccc(OC(C)C)c1` (stereo not drawn): the TGI in the assay with A549 NSCLC was > 100 µM; in the assay with EKVX NSCLC, > 100 µM; in the assay with HL-60(TB) leukemia it was 59.3 µM; in the assay on HOP-92 NSCLC it was 43.3 µM; in the assay with MCF7 breast it was > 100 µM; in the assay on MDA-N, > 100 µM. The TGI is > 100 µM with PC-3 prostate, > 100 µM in the assay with SNB-19 CNS, > 100 µM in the assay with SNB-75 CNS and 79.7 µM in the assay on SR leukemia.

Take `COc1cccc(/N=N/C(=NNC(=O)c2ccc(C)cc2)c2ccc(N(C)C)cc2)c1`: the TGI in the assay on A549 NSCLC, in the assay with EKVX NSCLC, in the assay on HL-60(TB) leukemia, with HOP-92 NSCLC, with MCF7 breast and in the assay with MDA-N was > 100 µM in each case. Besides, the TGI with PC-3 prostate, in the assay with SNB-19 CNS and with SR leukemia was > 100 µM throughout.

On to `CC(C)(C)NC(=O)CCC1C(C(=O)NC(C)(C)C)C2(Cl)C(Cl)=C(Cl)C1(Cl)C2(Cl)Cl` (stereo not drawn), for which the TGI in the assay with A549 NSCLC, in the assay on EKVX NSCLC, in the assay on HL-60(TB) leukemia, in the assay on MCF7 breast, in the assay on MDA-N and in the assay with PC-3 prostate was > 100 µM in each case. Further, the TGI in the assay with SNB-19 CNS, in the assay on SNB-75 CNS and with SR leukemia was > 100 µM in each case.

For `O=C(O)c1cc(CCc2cc(O)ccc2O)ccc1O`, the TGI was > 100 µM in the assay on A549 NSCLC; > 100 µM in the assay with EKVX NSCLC; 77.7 µM in the assay with HL-60(TB) leukemia; > 100 µM in the assay with HOP-92 NSCLC; > 100 µM with MCF7 breast; 27.1 µM with MDA-N. Besides, the TGI with PC-3 prostate, in the assay on SNB-75 CNS and with SR leukemia was > 100 µM each time.

Regarding `C1CSCCSCCCSCCSCCCSCCSCCCSCCSC1`, the TGI in the assay on A549 NSCLC, in the assay with EKVX NSCLC, in the assay with HL-60(TB) leukemia, in the assay on HOP-92 NSCLC, in the assay on MCF7 breast and in the assay with MDA-N was > 100 µM each time. The TGI with PC-3 prostate, in the assay on SNB-19 CNS and with SR leukemia was > 100 µM throughout.

Turning to `CC(=O)OCC1OC(OCCCOP(=S)(OCCC#N)OCC2OC(n3ccc(N)nc3=O)C(OC(=O)c3ccccc3)C2OC(=O)c2ccccc2)C(OC(C)=O)C(OC(C)=O)C1OC(C)=O` (stereo not drawn), the TGI with A549 NSCLC, in the assay with EKVX NSCLC, in the assay on HOP-92 NSCLC, in the assay with MCF7 breast, with MDA-N and with PC-3 prostate was > 100 µM each time. Also, the TGI in the assay on SNB-19 CNS, in the assay with SNB-75 CNS and in the assay with SR leukemia was > 100 µM throughout.

In the case of `CC(C)(CCC(C)(C)N1OC1c1ccccc1)N1OC1c1ccccc1` (stereo not drawn), the TGI with A549 NSCLC was > 100 µM; in the assay on HL-60(TB) leukemia, 44.3 µM; in the assay with HOP-92 NSCLC, > 100 µM; in the assay with MCF7 breast it was > 100 µM; in the assay with MDA-N, > 100 µM; in the assay on PC-3 prostate, > 100 µM. In addition, the figures for the TGI in the assay with SNB-19 CNS, in the assay with SNB-75 CNS and with SR leukemia were > 100 µM, > 100 µM and 40.3 µM, respectively.

Regarding `Nc1ccc(Nc2cc(=O)[nH]c(=O)[nH]2)cc1Cl`, the TGI in the assay on A549 NSCLC, with HL-60(TB) leukemia, in the assay on HOP-92 NSCLC, with MCF7 breast, in the assay on MDA-N and with PC-3 prostate was > 100 µM each time. Also, the TGI in the assay with SNB-19 CNS and in the assay with SR leukemia was > 100 µM in each case.
